Source: patent US20240122865A1, “Methods of Protecting RNA” (Pfizer Inc., priority 2021, published 2024)

Assays:
FgenL mRNA construct = experiment: Size Exclusion Base Hydrolysis Degradation Assay, FgenL; format: biochemical, Trichoderma atroviride; settings: 25 mM amino acid; for T0 R1 peak area at 250 nm: FgenL 0.1 mg/mL, 50 mM CAPS, T=0, replicate 1; for T2 Avg, peak area as percentage of T=0 / T2 R1 peak area at 250 nm / T10 Avg, peak area as percentage of T=0 / T10 R1 peak area at 250 nm / T24 Avg, peak area as percentage of T=0 / T24 R1 peak area at 250 nm / T0 Avg, peak area as percentage of T=0: FgenL; for T2 Avg, peak area as percentage of T=0 / T2 R1 peak area at 250 nm / T10 Avg, peak area as percentage of T=0 / T10 R1 peak area at 250 nm / T24 Avg, peak area as percentage of T=0 / T24 R1 peak area at 250 nm: 50 mM CAPS pH 11, room temperature; for T2 Avg, peak area as percentage of T=0 / T2 R1 peak area at 250 nm: 2 hrs; for T2 R1 peak area at 250 nm / T10 R1 peak area at 250 nm / T24 R1 peak area at 250 nm: replicate 1; for T10 Avg, peak area as percentage of T=0 / T10 R1 peak area at 250 nm: 10 hrs; for T24 Avg, peak area as percentage of T=0 / T24 R1 peak area at 250 nm: 24 hrs; for T0 Avg, peak area as percentage of T=0: T=0 (reference)
Protocol: Basic assay procedure: RNA samples were diluted to 1.0 mg/mL in DNAase/RNAase free water. Amino acids were dissolved in water to a stock solution of 100 mM and a solution of 500 mM CAPS pH 11 was used. The two mRNA constructs tested were FgenL and Chi18. Each individual sample volume was 50 μL. To determine the amount of 1 M NaOH needed to adjust the final pH to 11.0 after the addition of all sample components, the sample volume was increased 100 fold (5 mL), the volume of 1 M NaOH recorded and this value was translated back down to the 50 μL sample volume.
The mRNA and amino acid were allowed to incubate for one hour prior to the addition of CAPS pH 11. All steps of the assay were conducted at room temperature.
Degradation reaction: After the CAPS addition, the samples were injected onto the Waters H-Class UPLC system to record the first timepoint, T=O. This resulting chromatogram was processed by integrating the area of absorbance at 250 nm for the mRNA construct. Immediately following this timepoint, the pH was adjusted to 11. Subsequent time points (2 hrs, 10 hrs, and 24 hrs) recorded the Absorbance Units (peak area) at 250 nm as a percentage of the peak area determined at T=O. Integration of the chromatogram for subsequent timepoints was conducted by analyzing the area of absorbance at 250 nm contained within the same time window in which the peak eluted in T=0 for the 100% intact mRNA.

Chi18 model RNA = experiment: Droplet Digital Polymerase Chain Reaction (ddPCR) Assay, Chi18; format: biochemical, Trichoderma atroviride; settings: percent protection, pH 11.0, 30° C., 16 hours, n = 2
Protocol: The ddPCR assays measure RNA integrity by converting intact RNA to cDNA by reverse transcription, then performing digital PCR in thousands of nanoliter-sized droplets for each sample. PCR is performed within each droplet, which allows for more sensitive detection of subtle changes in RNA concentration compared to traditional PCR or qPCR. Additionally, primers/probes specific to the 5′ end of the RNA/cDNA transcript(s) are used to assess fragment integrity—e.g. degraded RNA will have fewer 5′ positive droplets. The BioRad QX200 Droplet Digital PCR System was used for the ddPCR workflow.
Basic assay procedure: RNA samples (Chi18 or FgenL fragments) were diluted to 25 fg/μL or 10 fg/μL, respectively, in 50 mM […] buffer pH 11.0. Amino acid stocks were made up in 50 mM CAPS buffer, pH 11.0 and subsequently re-adjusted to pH 11.0, post solubilization. Amino acid stocks were tested in a dose-response format to determine EC50. An amino acid dilution plate containing a ˜300 mM (or appropriate) top-concentration of amino acid in 50 mM CAPS buffer was serially (half-log) diluted for 10 times. 0.6 μL of this compound dilution plate was spotted into a 96-well PCR plate (Thermo). Sample RNAs were added (6 μL) and incubated with test amino acid as described below.
Degradation reaction: Treated RNAs were incubated for 16 hours at 30° C. for Chi18 samples or 44° C. for FgenL samples. Upon completion of the degradation reaction, cDNA was made from the intact RNA by Reverse Transcription and ddPCR run for each sample (96 well plates). Positive 5′ droplet values were divided by the total accepted droplet values for each sample and a ratio value generated for each sample.
EC50 was determined by using a four parameter logistic equation: Y=A+((B−A)/(1+(C/X)D)); where Y is percent protection, X is compound concentration, A and B are minimum and maximum asymptotes, respectively, C is EC50, and D is Hill slope.

HEK-293T cell monolayer = format: cell-based
VSV G pseudotyped virus = test system: VSV G pseudotyped virus; parameters: species or system BALB/c mice; settings: mouse

SMILES	T0 R1 peak area at 250 nm (FgenL mRNA construct)	T2 Avg, peak area as percentage of T=0 (FgenL mRNA construct)	T2 R1 peak area at 250 nm (FgenL mRNA construct)	T10 Avg, peak area as percentage of T=0 (FgenL mRNA construct)	T10 R1 peak area at 250 nm (FgenL mRNA construct)	T24 Avg, peak area as percentage of T=0 (FgenL mRNA construct)	T24 R1 peak area at 250 nm (FgenL mRNA construct)	T0 Avg, peak area as percentage of T=0 (FgenL mRNA construct)	EC50 (Chi18 model RNA)	IVE of the Tris/Sucrose LNP formulation upon inclusion of glutamic acid (HEK-293T cell monolayer)	effect on in vitro expression (IVE) of the Tris/Sucrose LNP formulation (HEK-293T cell monolayer)	stabilization as measured by functional immunogenic response in vivo (VSV G pseudotyped virus)
N[C@@H](CCC(=O)O)C(=O)O [Glutamic acid]	14529	73.9%	10330	39.7%	8449	0.0%	0	100.0%	6.7 mM	70%	improved	significant stabilization
N[C@@H](Cc1c[nH]cn1)C(=O)O [Histidine]	18949	34.5%	8325	0.0%	0	0.0%	0	100.0%	> 30 mM	–	–	–
NCCCC[C@H](N)C(=O)O [Lysine]	17400	0.0%	0	0.0%	0	0.0%	0	100.0%	> 30 mM	–	–	–
N=C(N)NCCC[C@H](N)C(=O)O [Arginine]	14624	0.0%	0	0.0%	0	0.0%	0	100.0%	7.6 mM	–	–	–
N[C@@H](CC(=O)O)C(=O)O [Aspartic acid]	17497	0.0%	0	0.0%	0	0.0%	0	100.0%	6.1 mM	–	–	–
